Values of other authors in patent US20140170287A1, “METHODS FOR PREPARING AND COMPOSITIONS COMPRISING PLANT SEED-BASED OMEGA-3 FATTY ACIDS” (Living Healthy World LLC, priority 2012, published 2014).

Test system: C-reactive protein (CRP)
Settings: consumption of ALA in flaxseeds; CRP as marker of the inflammatory status in the cardiovascular system

CC/C=C\C/C=C\C/C=C\CCCCCCCC(=O)O [ALA, alpha-linolenic acid]
decrease of blood levels of C-reactive protein (CRP): 10-15%
